A short description of the test: adrenocorticotropic activity of the purified peptides (no method described). Conditions: peptide purified by carboxymethylcellulose ion-exchange chromatography and Sephadex gel filtration; result in words only.

Turning to “[D-ala^1, asn^25 ]-ACTH-(1-25) [[D-ala^1 ,gln^25]-ACTH-(1-25)]”, the adrenocorticotropic activity result was “found to have adrenocorticotropic activity”.

For the origin of these results see US4130514A, “Synthesis of peptides” (Armour Pharmaceutical Company, priority 1978, dated 1978).
